According to patent US10111432B2, “Picolinamide N-oxide compounds with fungicidal activity” (Dow AgroSciences LLC, priority 2016, dated 2018):
Read-outs that look alike come from different tables or passages of the source.

Legend:
[1] = test system: Zymoseptoria tritici; test: Fungicidal activity: leaf blotch of wheat (SEPTTR), disease control on wheat seedlings; format: in vivo; settings: for pest or weed control at 100 ppm: high volume application; for pest or weed control at 121.5 g/ha: low volume application, 121.5 g/H
Description: Technical grades of materials were dissolved in acetone, which were then mixed with nine volumes of water (H2O) containing 110 ppm Triton X-100. The fungicide solutions were applied onto wheat seedlings using an automated booth sprayer to run-off. All sprayed plants were allowed to air dry prior to further handling. All fungicides were evaluated using the aforementioned method for their activity vs. all target diseases, unless stated otherwise. Wheat leaf blotch and brown rust activity were also evaluated using track spray applications, in which case the fungicides were formulated as EC formulations, containing 0.1% Trycol 5941 in the spray solutions. Wheat plants (variety Yuma) were grown from seed in a greenhouse in 50% mineral soil/50% soil-less Metro mix until the first leaf was fully emerged, with 7-10 seedlings per pot. These plants were inoculated with an aqueous spore suspension of Zymoseptoria tritici either prior to or after fungicide treatments. After inoculation the plants were kept in 100% relative humidity (one day in a dark dew chamber followed by two to three days in a lighted dew chamber at 20° C.) to permit spores to germinate and infect the leaf. The plants were then transferred to a greenhouse set at 20° C. for disease to develop. When disease symptoms were fully expressed on the 1st leaves of untreated plants, infection levels were assessed on a scale of 0 to 100 percent disease severity. Percent disease control was calculated using the ratio of disease severity on treated plants relative to untreated plants.

[2] = test system: Puccinia triticina; test: Fungicidal activity: wheat brown rust (PUCCRT), disease control on wheat seedlings; format: in vivo; settings: for pest or weed control at 121.5 g/ha: low volume application, 121.5 g/H; for pest or weed control at 100 ppm: high volume application
Description: Technical grades of materials were dissolved in acetone, which were then mixed with nine volumes of water (H2O) containing 110 ppm Triton X-100. The fungicide solutions were applied onto wheat seedlings using an automated booth sprayer to run-off. All sprayed plants were allowed to air dry prior to further handling. All fungicides were evaluated using the aforementioned method for their activity vs. all target diseases, unless stated otherwise. Wheat leaf blotch and brown rust activity were also evaluated using track spray applications, in which case the fungicides were formulated as EC formulations, containing 0.1% Trycol 5941 in the spray solutions. Wheat plants (variety Yuma) were grown from seed in a greenhouse in 50% mineral soil/50% soil-less Metro mix until the first leaf was fully emerged, with 7-10 seedlings per pot. These plants were inoculated with an aqueous spore suspension of Puccinia triticina either prior to or after fungicide treatments. After inoculation the plants were kept in a dark dew room at 22° C. with 100% relative humidity overnight to permit spores to germinate and infect the leaf. The plants were then transferred to a greenhouse set at 24° C. for disease to develop. Fungicide formulation, application and disease assessment followed the procedures as described in the Example A. Results of the evaluations are shown below in Table 4.

[3] = 24 h, 1 day protectant, read-out: SEPTTR disease control, 1DP, HV activity at 100 ppm
[4] = 24 h, 1 day protectant, read-out: SEPTTR disease control, 1DP, LV activity at 121.5 g/H
[5] = 72 h, 3 day curative, read-out: SEPTTR disease control, 3DC, HV activity at 100 ppm
[6] = 72 h, 3 day curative, read-out: SEPTTR disease control, 3DC, LV activity at 121.5 g/H
[7] = 24 h, 1 day protectant, read-out: PUCCRT disease control, 1DP, LV activity at 121.5 g/H
[8] = 24 h, 1 day protectant, read-out: PUCCRT disease control, 1DP, HV activity at 100 ppm
[9] = 72 h, 3 day curative, read-out: PUCCRT disease control, 3DC, HV activity at 100 ppm
[10] = 72 h, 3 day curative, read-out: PUCCRT disease control, 3DC, LV activity at 121.5 g/H

SMILES | pest or weed control at 100 ppm [1, 3] [%] | pest or weed control at 121.5 g/ha [1, 4] [%] | pest or weed control at 100 ppm [1, 5] [%] | pest or weed control at 121.5 g/ha [1, 6] [%] | pest or weed control at 121.5 g/ha [2, 7] [%] | pest or weed control at 100 ppm [2, 8] [%] | pest or weed control at 100 ppm [2, 9] [%] | pest or weed control at 121.5 g/ha [2, 10] [%]
COc1cc[n+]([O-])c(C(=O)N[C@@H](C)C(=O)O[C@@H](C)C(c2ccc(Cl)c(Cl)c2)c2ccc(Cl)c(Cl)c2)c1O [Compound 5] | > 80 | > 80 | ≤ 80 | ≤ 80 | ≤ 80 | – | – | –
COc1cc[n+]([O-])c(C(=O)N[C@@H](C)C(=O)O[C@@H](C)C(c2ccc(F)cc2)c2ccc(F)cc2)c1O [Compound 13] | > 80 | > 80 | > 80 | > 80 | > 80 | > 80 | > 80 | ≤ 80
COc1ccccc1C(c1ccccc1OC)[C@H](C)OC(=O)[C@H](C)NC(=O)c1c(O)c(OC)cc[n+]1[O-] [Compound 30] | – | > 80 | – | > 80 | ≤ 80 | – | – | ≤ 80
CCOc1cc(F)ccc1C(c1ccc(F)cc1OCC)[C@H](C)OC(=O)[C@H](C)NC(=O)c1c(O)c(OC)cc[n+]1[O-] [Compound 32] | – | ≤ 80 | – | ≤ 80 | ≤ 80 | – | – | –
CC[C@H](OC(=O)[C@H](C)NC(=O)c1c(O)c(OC)cc[n+]1[O-])[C@H](Oc1ccccc1)C(C)C [Compound 8] | – | – | – | ≤ 80 | ≤ 80 | – | – | > 80
COc1cc[n+]([O-])c(C(=O)N[C@@H](C)C(=O)O[C@@H](C)C(O)(c2ccc(Cl)c(Cl)c2)c2ccc(Cl)c(Cl)c2)c1O [Compound 11] | > 80 | > 80 | – | ≤ 80 | – | – | – | –
COc1cc(F)ccc1[C@@H](c1ccc(F)c(C)c1)[C@H](C)OC(=O)[C@H](C)NC(=O)c1c(O)c(OC)cc[n+]1[O-] [Compound 23] | > 80 | – | > 80 | – | – | > 80 | > 80 | –
COc1cc[n+]([O-])c(C(=O)N[C@@H](C)C(=O)O[C@@H](C)[C@@H](c2ccccc2)c2ccc(F)cc2)c1O [Compound 2] | > 80 | > 80 | > 80 | – | > 80 | > 80 | > 80 | > 80
COc1cc[n+]([O-])c(C(=O)N[C@@H](C)C(=O)O[C@@H](C)C(c2ccc(F)c(F)c2OC)c2ccc(F)c(F)c2OC)c1O [Compound 12] | > 80 | > 80 | > 80 | > 80 | > 80 | > 80 | ≤ 80 | ≤ 80
COc1cc[n+]([O-])c(C(=O)N[C@@H](C)C(=O)O[C@@H](C)C(c2cccc(C)c2)c2cccc(C)c2)c1O [Compound 25] | > 80 | > 80 | > 80 | > 80 | > 80 | > 80 | > 80 | > 80
COc1ccc(F)c(C(c2cc(OC)ccc2F)[C@H](C)OC(=O)[C@H](C)NC(=O)c2c(O)c(OC)cc[n+]2[O-])c1 [Compound 4] | ≤ 80 | – | – | > 80 | – | > 80 | ≤ 80 | –
COc1cc[n+]([O-])c(C(=O)N[C@@H](C)C(=O)O[C@@H](C)[C@@H](c2ccccc2)c2ccc(F)cc2C)c1O [Compound 22] | > 80 | > 80 | > 80 | > 80 | > 80 | > 80 | > 80 | > 80
COc1cc[n+]([O-])c(C(=O)N[C@@H](C)C(=O)O[C@@H](C)C(c2ccc(Cl)cc2)c2ccc(Cl)cc2)c1O [Compound 34] | – | > 80 | – | > 80 | > 80 | – | – | –
COc1cccc(C(c2cccc(OC)c2)[C@H](C)OC(=O)[C@H](C)NC(=O)c2c(O)c(OC)cc[n+]2[O-])c1 [Compound 36] | – | ≤ 80 | – | – | ≤ 80 | – | – | –
COc1cc[n+]([O-])c(C(=O)N[C@@H](C)C(=O)O[C@@H](C)[C@H](c2ccc(C)cc2)c2ccc(C)cc2F)c1O [Compound 28] | > 80 | > 80 | > 80 | > 80 | > 80 | > 80 | – | ≤ 80
COc1cc[n+]([O-])c(C(=O)N[C@@H](C)C(=O)O[C@@H](C)[C@H](c2ccccc2)c2ccc(C)cc2F)c1O [Compound 33] | – | > 80 | – | ≤ 80 | ≤ 80 | – | – | –
COc1ccc(F)cc1C(c1cc(F)ccc1OC)[C@H](C)OC(=O)[C@H](C)NC(=O)c1c(O)c(OC)cc[n+]1[O-] [Compound 41] | – | ≤ 80 | – | ≤ 80 | – | – | – | –
COc1cc(Cl)ccc1C(c1ccc(Cl)cc1OC)[C@H](C)OC(=O)[C@H](C)NC(=O)c1c(O)c(OC)cc[n+]1[O-] [Compound 37] | – | > 80 | – | ≤ 80 | > 80 | – | – | –
COc1cc[n+]([O-])c(C(=O)N[C@@H](C)C(=O)O[C@@H](C)C(c2ccc(F)c(F)c2)c2ccc(F)c(F)c2)c1O [Compound 21] | – | > 80 | – | > 80 | – | – | – | ≤ 80
COc1cc[n+]([O-])c(C(=O)N[C@@H](C)C(=O)O[C@@H](C)C(c2ccc(Cl)c(F)c2)c2ccc(Cl)c(F)c2)c1O [Compound 6] | > 80 | > 80 | > 80 | > 80 | ≤ 80 | > 80 | – | –
COc1cc[n+]([O-])c(C(=O)N[C@@H](C)C(=O)O[C@H](C(C)C)[C@H](C)Oc2ccccc2)c1O [Compound 10] | ≤ 80 | > 80 | – | – | > 80 | > 80 | > 80 | > 80
COc1cc(C(c2ccc(C)c(OC)c2)[C@H](C)OC(=O)[C@H](C)NC(=O)c2c(O)c(OC)cc[n+]2[O-])ccc1C [Compound 18] | – | > 80 | – | > 80 | ≤ 80 | – | – | ≤ 80
COc1cc[n+]([O-])c(C(=O)N[C@@H](C)C(=O)O[C@@H](C)C(O)(c2ccc(Cl)c(F)c2)c2ccc(Cl)c(F)c2)c1O [Compound 9] | > 80 | > 80 | – | – | – | – | – | –
COc1cc[n+]([O-])c(C(=O)N[C@@H](C)C(=O)O[C@@H](C)C(C)(c2ccccc2)c2ccccc2)c1O [Compound 27] | > 80 | ≤ 80 | > 80 | ≤ 80 | – | – | – | –
COc1cc[n+]([O-])c(C(=O)N[C@@H](C)C(=O)O[C@@H](C)C(c2cccc(OC)c2OC)c2cccc(OC)c2OC)c1O [Compound 40] | – | – | – | ≤ 80 | – | – | – | –
COc1cc[n+]([O-])c(C(=O)N[C@@H](C)C(=O)O[C@@H](C)C(c2cccc(F)c2)c2cccc(F)c2)c1O [Compound 35] | – | ≤ 80 | – | ≤ 80 | – | – | – | –
